Test: Antagonist activity at CRF1 receptor expressed in mouse AtT20 cells assessed as inhibition of sauvagine-stimulated cAMP accumulation

CCCN(CCC)c1c(C)nc(-c2c(C)cc(C)cc2OC)c2ccccc12 [1-(2-methoxy-4,6-dimethylphenyl)-3-methyl-N,N-dipropylisoquinolin-4-amine]
Ki: 0.012 µM

— BindingDB's records for doi:10.1016/j.bmcl.2007.12.050 (Neurogen, 2008)
